Assay results published in ChEMBL document CHEMBL1201862, “PubChem BioAssay data set” (2004).
Counter-ions that a name gives are not always drawn. Calls of active or inactive are those of the source.

Key:
[1] = Luminescence Cell-Based Dose Response HTS to Identify Inhibitors of 5'UTR Stem-Loop Driven Prion Protein mRNA Translation in H4 Neuroglioblastoma Cells. [Related pubchem assays: 1827 (Project Summary), 1813 (Primary HTS)]; assay type: functional
[2] = inhibitors of firefly luciferase expression or activity, dose response, H4 neuroglioma cells, luminescence (AID 1990); assay type: functional, cell-based
[3] = inhibitors of SNCA 5'UTR-driven reporter translation, confirmation, H4 neuroglioma cells, luminescence (AID 1988); assay type: functional, cell-based
Beta-galactosidase [4] = biological target: T1, Beta-galactosidase (Escherichia coli, UniProt Q8VNN2); experiment: beta-galactosidase enzyme inhibitors and activators, dose response, artefact control for CCR6 antagonist project, biochemical, E. coli enzyme, set 3 (AID 504712); assay type: functional
T1 sequence (Q8VNN2 whole entry): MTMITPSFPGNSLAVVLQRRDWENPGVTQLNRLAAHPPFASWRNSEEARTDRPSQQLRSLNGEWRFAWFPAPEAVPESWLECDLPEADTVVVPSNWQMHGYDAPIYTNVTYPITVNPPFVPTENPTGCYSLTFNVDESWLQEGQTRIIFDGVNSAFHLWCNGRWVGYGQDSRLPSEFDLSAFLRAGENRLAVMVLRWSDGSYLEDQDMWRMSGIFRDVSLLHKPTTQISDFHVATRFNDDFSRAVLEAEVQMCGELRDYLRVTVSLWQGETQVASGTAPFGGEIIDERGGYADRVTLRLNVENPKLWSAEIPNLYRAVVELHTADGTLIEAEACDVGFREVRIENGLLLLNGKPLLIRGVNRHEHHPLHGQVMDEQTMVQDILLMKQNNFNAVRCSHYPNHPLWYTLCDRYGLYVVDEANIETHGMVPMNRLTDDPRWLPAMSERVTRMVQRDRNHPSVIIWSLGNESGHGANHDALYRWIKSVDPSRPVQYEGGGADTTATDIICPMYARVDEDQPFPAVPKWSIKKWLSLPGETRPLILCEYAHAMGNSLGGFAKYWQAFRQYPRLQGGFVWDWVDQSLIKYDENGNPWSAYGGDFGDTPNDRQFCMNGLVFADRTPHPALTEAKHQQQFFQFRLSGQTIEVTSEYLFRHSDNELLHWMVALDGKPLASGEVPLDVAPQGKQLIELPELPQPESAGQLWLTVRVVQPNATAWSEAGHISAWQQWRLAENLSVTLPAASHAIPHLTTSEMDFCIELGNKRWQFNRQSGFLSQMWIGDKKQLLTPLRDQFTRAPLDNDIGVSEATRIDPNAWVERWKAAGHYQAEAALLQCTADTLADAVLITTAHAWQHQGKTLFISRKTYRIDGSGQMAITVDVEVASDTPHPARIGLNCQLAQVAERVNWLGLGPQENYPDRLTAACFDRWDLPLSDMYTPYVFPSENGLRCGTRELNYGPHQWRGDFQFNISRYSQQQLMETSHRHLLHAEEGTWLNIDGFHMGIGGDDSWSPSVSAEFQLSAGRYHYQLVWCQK

cells [5] = assay type: functional, cell-based
[6] = biological target: T2, Nuclear receptor subfamily 0 group B member 1 (Homo sapiens, UniProt P51843); assay type: functional, cell-based;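 note: HEK293T cells transfected with SF-1 and DAX-1 plus StAR promoter luciferase reporter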
T2 sequence (P51843 whole entry): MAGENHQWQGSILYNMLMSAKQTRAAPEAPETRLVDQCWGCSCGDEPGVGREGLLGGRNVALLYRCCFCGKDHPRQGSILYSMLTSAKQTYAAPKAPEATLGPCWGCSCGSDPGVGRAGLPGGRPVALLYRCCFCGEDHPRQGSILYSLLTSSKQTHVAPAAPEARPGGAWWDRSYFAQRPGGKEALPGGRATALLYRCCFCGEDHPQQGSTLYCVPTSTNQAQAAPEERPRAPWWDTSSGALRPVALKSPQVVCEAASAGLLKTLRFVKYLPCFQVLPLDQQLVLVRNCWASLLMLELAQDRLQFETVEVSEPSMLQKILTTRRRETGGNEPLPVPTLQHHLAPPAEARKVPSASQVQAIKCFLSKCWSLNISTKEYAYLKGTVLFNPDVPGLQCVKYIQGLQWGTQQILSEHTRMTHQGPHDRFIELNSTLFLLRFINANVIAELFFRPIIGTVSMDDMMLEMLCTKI

[7] = biological target: 5-hydroxytryptamine receptor 2A (Mus musculus, UniProt P35363); assay type: functional, cell-based;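 note: CHO-K1 cells with tagged receptor and beta-arrestin; agonist potency measured as compound-induced activation of the receptor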
Chain of 5-hydroxytryptamine receptor 2A (P35363 whole entry): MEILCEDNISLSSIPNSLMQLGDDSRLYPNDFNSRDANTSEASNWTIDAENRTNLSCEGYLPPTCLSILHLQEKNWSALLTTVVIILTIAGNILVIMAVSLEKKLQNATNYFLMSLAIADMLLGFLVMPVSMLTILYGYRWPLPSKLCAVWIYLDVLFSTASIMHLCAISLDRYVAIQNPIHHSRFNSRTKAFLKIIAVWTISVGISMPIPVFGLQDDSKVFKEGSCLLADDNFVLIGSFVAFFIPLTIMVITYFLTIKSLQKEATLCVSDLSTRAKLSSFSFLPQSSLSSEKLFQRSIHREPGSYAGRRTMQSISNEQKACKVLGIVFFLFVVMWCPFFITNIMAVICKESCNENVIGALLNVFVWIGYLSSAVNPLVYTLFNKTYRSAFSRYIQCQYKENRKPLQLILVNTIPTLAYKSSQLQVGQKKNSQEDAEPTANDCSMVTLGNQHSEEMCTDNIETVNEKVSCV

[8] = biological target: Voltage-gated inwardly rectifying potassium channel KCNH2 (Homo sapiens, UniProt Q12809); settings: Potency;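 note: confirmatory quantitative high-throughput screen measuring inhibition of hERG channel activity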
Chain of Voltage-gated inwardly rectifying potassium channel KCNH2 (Q12809 whole entry): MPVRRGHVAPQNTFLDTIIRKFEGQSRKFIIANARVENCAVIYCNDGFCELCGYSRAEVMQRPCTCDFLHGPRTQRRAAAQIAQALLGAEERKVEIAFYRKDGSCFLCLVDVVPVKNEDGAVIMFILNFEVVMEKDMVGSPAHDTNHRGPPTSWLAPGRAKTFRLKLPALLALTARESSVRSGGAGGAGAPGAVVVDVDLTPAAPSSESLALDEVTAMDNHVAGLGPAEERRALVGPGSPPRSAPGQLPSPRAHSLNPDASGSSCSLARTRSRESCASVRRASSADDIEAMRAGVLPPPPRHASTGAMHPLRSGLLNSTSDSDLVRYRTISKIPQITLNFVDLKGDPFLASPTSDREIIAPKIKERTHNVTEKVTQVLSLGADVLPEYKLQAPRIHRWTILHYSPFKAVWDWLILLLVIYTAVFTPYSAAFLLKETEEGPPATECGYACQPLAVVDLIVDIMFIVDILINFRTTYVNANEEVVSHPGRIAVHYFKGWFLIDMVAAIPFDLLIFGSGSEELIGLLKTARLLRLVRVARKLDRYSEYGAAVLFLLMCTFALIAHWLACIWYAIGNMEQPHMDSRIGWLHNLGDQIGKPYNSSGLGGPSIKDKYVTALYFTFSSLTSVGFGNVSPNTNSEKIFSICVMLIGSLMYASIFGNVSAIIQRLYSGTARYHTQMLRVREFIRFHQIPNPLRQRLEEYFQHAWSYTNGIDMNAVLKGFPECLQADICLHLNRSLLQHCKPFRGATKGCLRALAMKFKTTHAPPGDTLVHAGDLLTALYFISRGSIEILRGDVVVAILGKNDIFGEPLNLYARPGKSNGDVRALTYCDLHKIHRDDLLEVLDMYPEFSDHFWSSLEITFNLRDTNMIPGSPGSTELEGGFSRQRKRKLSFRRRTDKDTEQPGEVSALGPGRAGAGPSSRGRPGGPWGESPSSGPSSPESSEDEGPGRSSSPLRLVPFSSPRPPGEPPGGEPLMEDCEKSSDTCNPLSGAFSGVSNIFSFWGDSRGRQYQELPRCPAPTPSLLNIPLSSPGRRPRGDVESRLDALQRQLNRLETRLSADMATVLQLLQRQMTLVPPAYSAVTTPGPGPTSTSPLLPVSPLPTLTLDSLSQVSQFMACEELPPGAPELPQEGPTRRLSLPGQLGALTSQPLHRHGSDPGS

cells [9] = experiment: cells
[10] = NIH-3T3 fibroblast cytotoxicity, dose response, cytotoxicity control, cell-based, fluorescence, Alamar Blue, secondary assay (AID 2327); assay type: functional;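 note: NIH-3T3 mouse fibroblasts cultured with fluconazole at 8 µg/mL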
[11] = biological target: T3, Oxysterols receptor LXR-beta (Homo sapiens, UniProt P55055); assay type: functional, cell-based;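 note: Cell-based luminescence dose-response assay of agonist activity at LXR, run as a confirmatory counterscreen to a daf-12 agonist screen; HEK293 cells with Gal4-LXR fusion and GAL4-driven luciferase reporter; agonist potency from rising luciferase signal of a Gal4-LXR reporter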
T3 sequence (P55055 whole entry): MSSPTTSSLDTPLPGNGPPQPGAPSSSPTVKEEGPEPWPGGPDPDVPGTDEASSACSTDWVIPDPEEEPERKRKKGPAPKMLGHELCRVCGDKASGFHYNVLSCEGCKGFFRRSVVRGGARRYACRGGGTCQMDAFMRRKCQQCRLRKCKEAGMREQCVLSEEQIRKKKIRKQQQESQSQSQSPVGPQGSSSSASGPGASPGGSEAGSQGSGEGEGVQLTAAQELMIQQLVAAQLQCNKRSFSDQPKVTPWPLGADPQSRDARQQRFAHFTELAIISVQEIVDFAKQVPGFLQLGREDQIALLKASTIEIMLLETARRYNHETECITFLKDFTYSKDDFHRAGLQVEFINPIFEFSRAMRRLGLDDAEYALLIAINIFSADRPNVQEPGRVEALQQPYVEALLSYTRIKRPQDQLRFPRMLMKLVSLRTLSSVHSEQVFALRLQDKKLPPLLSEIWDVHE

[12] = C. albicans growth with fluconazole, confirmation, fluorescence, retest (AID 2467); assay type: functional, cell-based
[13] = biological target: DNA dC->dU-editing enzyme APOBEC-3A (Homo sapiens, UniProt P31941); experiment: APOBEC3A DNA deaminase inhibitors, dose response, biochemical (AID 504722); assay type: functional
Chain of DNA dC->dU-editing enzyme APOBEC-3A (P31941 whole entry): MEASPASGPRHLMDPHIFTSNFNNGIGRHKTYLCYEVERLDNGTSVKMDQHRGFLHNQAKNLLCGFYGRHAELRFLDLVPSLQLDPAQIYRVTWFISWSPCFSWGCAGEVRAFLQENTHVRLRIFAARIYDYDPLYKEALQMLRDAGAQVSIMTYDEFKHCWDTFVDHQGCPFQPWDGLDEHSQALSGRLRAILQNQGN

[14] = biological target: DNA dC->dU-editing enzyme APOBEC-3G (Homo sapiens, UniProt Q9HC16); experiment: Dose Response confirmation of small molecule APOBEC3G DNA Deaminase Inhibitors via a fluorescence-based single-stranded DNA deaminase assay. [Related pubchem assays (depositor defined):AID493012, AID493028]; assay type: functional
Chain of DNA dC->dU-editing enzyme APOBEC-3G (Q9HC16 whole entry): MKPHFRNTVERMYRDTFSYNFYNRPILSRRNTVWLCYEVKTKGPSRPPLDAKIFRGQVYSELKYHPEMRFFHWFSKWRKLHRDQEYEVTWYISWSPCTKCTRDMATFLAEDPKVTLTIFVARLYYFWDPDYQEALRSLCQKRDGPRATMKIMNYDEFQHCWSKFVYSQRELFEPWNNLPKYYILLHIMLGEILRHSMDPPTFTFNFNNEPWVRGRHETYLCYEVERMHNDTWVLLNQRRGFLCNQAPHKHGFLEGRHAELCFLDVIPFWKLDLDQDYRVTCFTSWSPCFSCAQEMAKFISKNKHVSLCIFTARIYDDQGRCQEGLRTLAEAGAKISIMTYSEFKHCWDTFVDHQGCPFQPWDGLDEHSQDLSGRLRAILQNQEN

[15] = HepG2 cell cytotoxicity, dose response, cytotoxicity control, cherry-picked samples (AID 1159577); assay type: functional, cell-based
[16] = P. falciparum Dd2 growth inhibitors, dose response, SYBR Green, cherry-picked samples (AID 1159567); assay type: functional, cell-based
[17] = HepG2 cell cytotoxicity, dose response, cytotoxicity control, plate reader, dry powder samples (AID 1159569); assay type: functional, cell-based;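 note: inhibitor potency with signal falling toward the positive control level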
[18] = P. falciparum 3D7-ScDHODH growth inhibitors, dose response, SYBR Green, dry powder samples (AID 1159570); assay type: functional, cell-based;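 note: parasite growth measured after 72 hours of compound exposure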
[19] = P. falciparum Dd2 growth inhibitors, dose response, SYBR Green, dry powder samples (AID 1159566); assay type: functional, cell-based;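 note: potency for growth inhibition with lower SYBR green DNA signal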
[20] = P. falciparum ATP4 D1247Y mutant growth inhibitors, dose response, NITD609-resistant line, SYBR Green, dry powder (AID 1159571); assay type: functional, cell-based;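 note: parasites synchronized at ring stage by sorbitol before testing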
[21] = biological target: T4, Type-1 angiotensin II receptor (Homo sapiens, UniProt P30556); experiment: AT1 receptor antagonists, dose response, selectivity assay for APJ receptor antagonist project, cell-based, uHTS hits (AID 463214); assay type: functional;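 note: antagonist potency against angiotensin II stimulated AT1 response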
T4 sequence (P30556 whole entry): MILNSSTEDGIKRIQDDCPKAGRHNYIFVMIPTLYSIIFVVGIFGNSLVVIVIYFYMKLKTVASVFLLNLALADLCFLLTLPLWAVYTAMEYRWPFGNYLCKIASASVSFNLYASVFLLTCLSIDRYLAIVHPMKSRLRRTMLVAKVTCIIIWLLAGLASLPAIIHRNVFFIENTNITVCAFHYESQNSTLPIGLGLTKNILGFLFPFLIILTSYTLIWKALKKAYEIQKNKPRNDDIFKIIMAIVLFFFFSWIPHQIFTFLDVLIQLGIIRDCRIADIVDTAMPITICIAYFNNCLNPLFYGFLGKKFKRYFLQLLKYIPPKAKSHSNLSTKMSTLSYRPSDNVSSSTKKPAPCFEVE

[22] = Luminescence Cell-Based Dose Retest to Confirm Inhibitors of Cancer Stem Cells. [Related pubchem assays (depositor defined):AID2717, AID2721]; assay type: functional; settings: Homo sapiens
Beta-galactosidase [23] = biological target: T1, Beta-galactosidase; experiment: PubChem AID 485352; assay type: functional

## NC(=O)c1c(NC(=O)c2ccc([N+](=O)[O-])o2)sc2c1CCCC2
[1]
  EC50: 47.5 µM (active)
[2]
  EC50: 13.3 µM (active)
[3]
  EC50: 7.76 µM (active)
Beta-galactosidase [4]
  IC50: > 66.6 µM (inactive)

## CNCC(O)c1ccc(O)c(O)c1 (stereo not given) [RACEPINEPHRINE HYDROCHLORIDE]
Cells [5]
  IC50: > 67.6 µM (inactive)
[6]
  IC50: > 67.6 µM (inactive)
[7]
  EC50: 1.39 µM (active)
[8]
  AC50: 12.6 µM (inconclusive)

## COc1ccc(-c2csc(-c3ccccc3)n2)c(OC)c1
Cells [9]
  EC50: > 67.5 µM (inactive)
[10]
  EC50: > 160 µM (inactive)
[11]
  EC50: > 67.5 µM (inactive)
[12]
  EC50: 6.64 µM (active)

## O=C(c1c(Cl)nc2sccn12)N(C(=O)c1c(Cl)nc2sccn12)c1ccc(Cl)cn1
Cells [9]
  EC50: > 67.5 µM (inactive)
[11]
  EC50: > 67.5 µM (inactive)

## Cc1cc(-c2nnc(S)n2CC(C)C)cs1
[13]
  IC50: > 100 µM (inactive)
[14]
  IC50: 5.87 µM (active)

## COc1cccc(-c2cccc(-c3nc(C(=O)Nc4ccc(-c5ccccc5)cc4)cc4c3[C@@H](CCO)N([S+]([O-])C(C)(C)C)C4)c2)c1 (stereo not given in full)
[15]
  AC50: 15.2 µM (active)
[16]
  AC50: 2.71 µM (active)

## COc1ccccc1NC(=O)N1CCCCN2[C@@H](CO)[C@H](c3ccc(C#CC4CCCC4)cc3)[C@@H]2C1
[15]
  AC50: 17.4 µM (active)
[17]
  AC50: 10.6 µM (active)
[18]
  AC50: 0.425 µM (active)
[16]
  AC50: 1.98 µM (active)
[19]
  AC50: 0.386 µM (active)
[20]
  AC50: 0.458 µM (active)

## Cc1ccc(-c2cc(-c3ccccc3)nc(NN)n2)cc1
[21]
  IC50: 6.66 µM (active)
[22]
  AC50: 5.4 µM (active)
Beta-galactosidase [23]
  EC50: > 40 µM (inactive)

## CC(C)CCn1c(N)c(C(=O)OCC2CCCO2)c2nc3ccccc3nc21 (stereo not given)
[21]
  IC50: > 40 µM (not active)
Beta-galactosidase [23]
  EC50: > 40 µM (inactive)

## C=CCOC(=O)CCCCCCCC
[8]
  AC50: 79.4 µM (inconclusive)
